Experimental data: PubChem BioAssay (NCI)
Where “and” joins values, the source holds several entries; their conditions need not be identical. Identical values can stand only once.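 1) Cells in 96-well plates. 2) Compound, 48 h, 5 concentrations. 3) Linear interpolation between surrounding doses. 4) Unreached endpoint = highest concentration. GI50 marks 50% less growth. TGI is the concentration that stops growth completely.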

Key:
Assay in all cases: DTP human tumour cell line panel, 48 h
[1] = tested on: HOP-18 NSCLC
[2] = tested on: MDA-MB-435
[3] = tested on: MDA-MB-231 breast
[4] = tested on: PC-3 prostate
[5] = tested on: T-47D breast
[6] = tested on: BT-549 breast

Cc1ccccc1NC(=O)/C=N/O
TGI [1]: > 100 µM

C/C=C/C/C=C/[C@H](C)C[C@H](O)[C@@H]1C[C@@H]2O[C@H]2/C=C/[C@@H]2OC(C)(C)O[C@H]2/C=C/C[C@H](C)CC(=O)O1
GI50 [2]: 24 µM | TGI [2]: > 100 µM | GI50 [3]: 36.1 µM | TGI [3]: > 100 µM | GI50 [4]: 5.75 µM | TGI [4]: > 100 µM | GI50 [5]: 2.18 µM | TGI [5]: 8.53 µM | GI50 [6]: 16.3 µM | TGI [6]: > 100 µM

COCCOCCOCc1n(Cc2ccc3ccccc3c2)c2ccccc2[n+]1Cc1ccc2ccccc2c1
GI50 [2]: 0.282 µM | TGI [2]: 1.23 µM | GI50 [3]: 0.38 µM | TGI [3]: 1.64 µM | GI50 [4]: 0.344 µM | TGI [4]: 1.59 µM | GI50 [5]: 0.216 µM | TGI [5]: 1.12 µM | GI50 [6]: 0.366 µM | TGI [6]: 1.53 µM

N#COc1ccc(Oc2ccccc2)cc1
TGI [1]: > 100 µM

CC1=C(/C=C/C(=O)CC(=O)/C=C/C2=C(C)CCCC2(C)C)C(C)(C)CCC1
GI50 [2]: 38.1 µM | TGI [2]: > 100 µM | GI50 [3]: 52.3 µM | TGI [3]: > 100 µM | GI50 [4]: 17.6 µM | TGI [4]: 75.2 µM | GI50 [5]: 41.5 µM | TGI [5]: > 100 µM | GI50 [6]: 33.9 µM | TGI [6]: > 100 µM

Nc1ccc(-c2cc(C(=O)Nc3nccs3)[nH]c(=S)n2)cc1
TGI [1]: > 100 µM

O=C1CC[C@H](N2Cc3c(OCc4ccc(CN5CCOCC5)cc4)cccc3C2=O)C(=O)N1
GI50 [2]: > 100 µM | TGI [2]: > 100 µM | GI50 [3]: > 100 µM | TGI [3]: > 100 µM | GI50 [4]: > 100 µM | TGI [4]: > 100 µM | GI50 [5]: > 100 µM | TGI [5]: > 100 µM | GI50 [6]: 98.9 µM | TGI [6]: > 100 µM

CNC(=O)c1cc(Oc2cccc3nc(NC(=O)Nc4cc(C(F)(F)F)cc(C(F)(F)F)c4)ccc23)ccn1
GI50 [2]: 4.7 µM | TGI [2]: > 100 µM | GI50 [4]: 6.06 µM | TGI [4]: 38.2 µM | GI50 [5]: 4.13 µM | TGI [5]: 31.1 µM | GI50 [6]: 11.4 µM | TGI [6]: 55.6 µM

C=C1c2ccccc2C(=O)c2c1c1c(C(=O)OC)c(OC(=O)OCc3ccc([N+](=O)[O-])cc3)ccc1n2Cc1ccccc1
GI50 [2]: 23.5 µM | TGI [2]: > 100 µM | GI50 [3]: 18.3 µM | TGI [3]: 65.6 µM | GI50 [4]: 0.329 µM | TGI [4]: 4.4 µM | GI50 [6]: 3.21 µM | TGI [6]: 9.48 µM

O=C1/C=C/[C@@H](O)[C@@H]2C[C@@H](O)C[C@H]2/C=C/CCC[C@H](CCc2ccc3ncccc3c2)O1
GI50 [2]: 0.318 µM | TGI [2]: 13.3 µM | GI50 [3]: 0.167 µM | TGI [3]: 0.373 µM | GI50 [4]: 0.313 µM | TGI [4]: > 36 µM | GI50 [5]: 0.312 µM | TGI [5]: 8.1 µM | GI50 [6]: 0.402 µM | TGI [6]: 16.2 µM

Cc1cc(-c2nnc(/C=C/c3ccc4c(c3)OCO4)o2)n[nH]1
GI50 [2]: 0.915 µM | TGI [2]: 2.52 µM | GI50 [3]: 16.9 µM | TGI [3]: > 50 µM | GI50 [4]: 7.87 µM | TGI [4]: > 50 µM | GI50 [5]: 22 µM | TGI [5]: > 50 µM | GI50 [6]: 6.78 µM | TGI [6]: 39.3 µM

O=[N+]([O-])c1cccc(-c2nc(-c3ccc(Cl)cc3Cl)cn2-c2ccccc2)c1
GI50 [2]: 0.763 µM | TGI [2]: 2.71 µM | GI50 [3]: 1.93 µM | TGI [3]: > 20.5 µM | GI50 [4]: 0.391 µM | TGI [4]: 10.8 µM | GI50 [5]: 0.922 µM | TGI [5]: 2.9 µM | GI50 [6]: 0.0695 µM | TGI [6]: > 22.1 µM

CCOC(=O)Nc1nc2ccccc2[nH]1
GI50 [2]: 1.28 µM and 0.674 µM | TGI [2]: 4 µM | GI50 [3]: 12.9 µM and 19.3 µM | TGI [3]: > 100 µM | GI50 [4]: 6.6 µM and 4.07 µM | TGI [4]: > 100 µM | GI50 [5]: 5.76 µM and 4.62 µM | TGI [5]: > 100 µM | GI50 [6]: 6.03 µM | TGI [6]: > 100 µM

CCC1C(C)C=NN1c1nc(N)nc(C(C#N)=Nc2ccc(N(C)C)cc2)n1 (stereo not given)
GI50 [2]: 16.7 µM | TGI [2]: > 50 µM | GI50 [3]: 11.4 µM | TGI [3]: 30.9 µM | GI50 [4]: 2.53 µM | TGI [4]: 10.1 µM | GI50 [5]: 23.5 µM | TGI [5]: > 50 µM

CCO/S(=N/S(=O)(=O)c1ccccc1)c1ccccc1[N+](=O)[O-] (stereo not given)
TGI [1]: > 100 µM

Nc1ccccc1C#C/C=C\C#CC#C/C=C\C#Cc1ccccc1N
GI50 [2]: 2.85 µM | TGI [2]: 9.72 µM | GI50 [3]: 1.54 µM | TGI [3]: 14.8 µM | GI50 [4]: 2.59 µM | TGI [4]: 16.5 µM | GI50 [5]: 6.47 µM | TGI [5]: > 100 µM | GI50 [6]: 5.03 µM | TGI [6]: 25.9 µM

CC1(C)CCCC2(C)C3C(O)CC2(C)C(O)C31 (stereo not given)
TGI [1]: > 100 µM

O=C(Nc1cccc(-n2cc(-c3ccncc3)c(-c3ccc(O)c(Cl)c3)n2)c1)c1ccc2c(c1)OCCO2
GI50 [2]: > 100 µM | TGI [2]: > 100 µM | GI50 [3]: 2.92 µM | TGI [3]: > 100 µM | GI50 [4]: 7.3 µM | TGI [4]: > 100 µM | GI50 [5]: 3.44 µM | TGI [5]: > 100 µM | GI50 [6]: 4.92 µM | TGI [6]: > 100 µM

Cc1cc(C(=O)/C=C/c2ccc[nH]2)ccc1-n1ccc(C(F)(F)F)n1
GI50 [2]: 35.5 µM | TGI [2]: > 100 µM | GI50 [3]: 27.6 µM | TGI [3]: > 100 µM | GI50 [4]: 0.472 µM | TGI [4]: 4.45 µM | GI50 [5]: 4.78 µM | TGI [5]: > 100 µM | GI50 [6]: 1.36 µM | TGI [6]: 3.12 µM

NCCCCCNc1noc(Cc2c[nH]c3cc(Br)ccc23)n1
GI50 [2]: 0.327 µM | TGI [2]: 2.33 µM | GI50 [3]: 2.78 µM | TGI [3]: 15.7 µM | GI50 [4]: 3.2 µM | TGI [4]: 45.7 µM | GI50 [5]: 5.15 µM | TGI [5]: 30.1 µM | GI50 [6]: 2.43 µM | TGI [6]: 24.4 µM

CN(C)C(=O)OCc1nc2c(N3CCOCC3)nc(-c3ccccc3)nc2n1C
GI50 [2]: 0.891 µM | TGI [2]: 2.27 µM | GI50 [3]: 1.25 µM | TGI [3]: 2.62 µM | GI50 [4]: 0.507 µM | TGI [4]: 1.31 µM | GI50 [5]: 1.85 µM | TGI [5]: 4.62 µM | GI50 [6]: 1.04 µM | TGI [6]: 2.32 µM

Cc1ccc(S(=O)(=O)NC(=O)NCCc2ccccc2)cc1
TGI [1]: > 100 µM

Cc1c(Cl)c(=O)oc2cc(OC/C=C3\CCC(=O)O3)ccc12
GI50 [2]: 25.3 µM | TGI [2]: 96.3 µM | GI50 [3]: 16.8 µM | TGI [3]: 33.2 µM | GI50 [4]: 14.2 µM | TGI [4]: 38.8 µM | GI50 [5]: 13.6 µM | TGI [5]: 36.2 µM | GI50 [6]: 15.7 µM | TGI [6]: 32 µM

COC(=O)CCC(=O)N1C/C(=C\c2ccccc2)C(=O)/C(=C/c2ccccc2)C1
TGI [1]: 6.85 µM

O=C(O)c1cc2ccccc2c2c3c(ccc12)OCO3
GI50 [2]: 172 µM | TGI [2]: 519 µM | GI50 [3]: 165 µM | TGI [3]: > 1000 µM | GI50 [4]: 166 µM | TGI [4]: 559 µM | GI50 [5]: 209 µM | TGI [5]: 750 µM | GI50 [6]: 119 µM | TGI [6]: 390 µM

Nc1nonc1-c1nc2ccccc2n1Cc1ccc(F)cc1
GI50 [2]: 1.87 µM | TGI [2]: 5.89 µM | GI50 [3]: 6.84 µM | TGI [3]: > 100 µM | GI50 [5]: > 100 µM | TGI [5]: > 100 µM | GI50 [6]: 9.8 µM | TGI [6]: > 100 µM

Nc1ncnc2c1ncn2C1OC(COS(N)(=O)=O)C(O)C1O (stereo not given)
GI50 [2]: 0.00184 µM and 0.018 µM | TGI [2]: 0.00356 µM and 0.0355 µM | GI50 [3]: < 0.001 µM | GI50 [4]: 0.0243 µM | TGI [4]: 0.0587 µM | GI50 [6]: 0.00266 µM and 0.0266 µM
